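Compound exposure: 48 hours, 5 concentrations, 96-well plates. GI50: concentration for 50% inhibition of growth.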 Activity calls are given as the source filed them. Cut-off read from the data, not from the text of the source: active = GI50 up to about 1.1 µM and inactive = higher.

Some test systems named below: A498; A549; HCT-15; Hs-578T; K562; KM12; LOX IMVI; MDA-MB-231; NCI-H23; NCI-H460; OVCAR-5; OVCAR-8; SK-MEL-5; SR; SW-620; T47D; TK-10; UO-31; SNB-75.
Common to all, as to experiment: NCI tumour cell line growth inhibition, 48 h

As to `CCOC(=O)CN1C(=O)c2c(NC(=O)C(=O)O)cccc2S1(=O)=O`, the GI50 in the test on A498 is > 100 µM (inactive); with A549 it was > 100 µM (inactive); in the test on HCT-15, more than 100 µM; in the test with Hs-578T it was > 100 µM (inactive); in the test on K562, > 100 µM (inactive); in the test with KM12 it was > 100 µM (inactive). In addition, the GI50 in the test on LOX IMVI, with MDA-MB-231, in the test with NCI-H23, in the test with NCI-H460, in the test with OVCAR-5 and in the test on OVCAR-8 was > 100 µM (inactive) each time. The GI50 in the test with SK-MEL-5, with SR, with SW-620, with T47D, with TK-10 and in the test on UO-31 was > 100 µM (inactive) throughout.
For `Cc1ccc(/C=C2\CN(C)CC3=C2OC(N)=C(C#N)C3c2ccc(C)cc2)cc1` (centres undefined), the GI50 in the test with A498 is 16 µM (inactive); with A549, 14.4 µM (inactive); with HCT-15, 14.1 µM; in the test with Hs-578T, 46.3 µM (inactive); in the test with K562, 11.2 µM (inactive); in the test on KM12 it was 15.5 µM (inactive). Besides, the GI50 with LOX IMVI was 13.5 µM (inactive); in the test on MDA-MB-231, > 38.5 µM (inactive); in the test on NCI-H23, 16 µM (inactive); with NCI-H460 it was 17.9 µM (inactive); with OVCAR-5, 22.8 µM (inactive); in the test with OVCAR-8, 13.4 µM (inactive). In addition, the GI50 was 25.9 µM (inactive) with SK-MEL-5; 19.9 µM (inactive) in the test on SR; 32 µM (inactive) with SW-620; 7.11 µM (inactive) in the test on T47D; 31.5 µM (inactive) in the test with TK-10; 17.6 µM (inactive) with UO-31.
On to `O=NN1CCNC1Cc1ccccc1` (centres undefined), for which the GI50 with A549 is > 100 µM (inactive); in the test on HCT-15 it was more than 100 µM; with Hs-578T, > 100 µM (inactive); in the test with K562, > 100 µM (inactive); in the test with KM12, > 100 µM (inactive); with LOX IMVI it was > 100 µM (inactive). Further, the GI50 in the test on MDA-MB-231 was > 100 µM (inactive); with NCI-H23 it was 72.1 µM (inactive); in the test with NCI-H460 it was 38.7 µM (inactive); with OVCAR-5, > 100 µM (inactive); with OVCAR-8, > 100 µM (inactive); in the test on SK-MEL-5, 72.6 µM (inactive). In addition, the GI50 in the test on SNB-75 was 18.3 µM (inactive); in the test on SR it was 23.8 µM (inactive); in the test on SW-620, > 100 µM (inactive); with T47D, 47.1 µM (inactive); with TK-10 it was > 100 µM (inactive); in the test with UO-31 it was 43.7 µM (inactive).
For the compound `CCN(CC)CCNc1ccc2nnn3c4ccc(OCCN(CC)CC)cc4c(=O)c1c23`, the GI50 in the test with A498 was > 100 µM (inactive); with A549, 44.9 µM (inactive); with HCT-15, 64.6 µM; with Hs-578T, > 100 µM (inactive); in the test with K562, 38.6 µM (inactive); with KM12, 32.3 µM (inactive). Moreover, the GI50 is 23.1 µM (inactive) with MDA-MB-231; 88.5 µM (inactive) in the test with NCI-H23; 33.7 µM (inactive) in the test on NCI-H460; > 100 µM (inactive) in the test with OVCAR-5; 27.9 µM (inactive) with OVCAR-8; 19.4 µM (inactive) in the test with SR. The GI50 in the test on SW-620 is 38.2 µM (inactive); in the test with T47D, > 100 µM (inactive); with TK-10, 28.5 µM (inactive); in the test on UO-31, 89.9 µM (inactive).
In the case of `CSc1ccc(Nc2cc(=O)[nH]c(=O)[nH]2)cc1`, the GI50 was > 100 µM (inactive) in the test on A498; > 100 µM (inactive) with A549; more than 100 µM with HCT-15; > 100 µM (inactive) in the test with Hs-578T; > 100 µM (inactive) with K562; > 100 µM (inactive) in the test on LOX IMVI. Further, the GI50 was > 100 µM (inactive) in the test with MDA-MB-231; > 100 µM (inactive) with NCI-H23; > 100 µM (inactive) with NCI-H460; > 100 µM (inactive) in the test with OVCAR-5; 60.4 µM (inactive) in the test on OVCAR-8; > 100 µM (inactive) in the test on SK-MEL-5. For the same compound, the GI50 in the test with SR, in the test on SW-620, in the test with T47D and with UO-31 was > 100 µM (inactive) in each case.
As to `NC(=O)c1c(NC=O)ncn1C1OCC(O)C(O)C1O` (centres undefined), the GI50 in the test with A549 is > 100 µM (inactive); in the test with HCT-15, more than 100 µM; in the test on Hs-578T, > 100 µM (inactive); in the test on K562, > 100 µM (inactive); in the test with KM12, > 100 µM (inactive); in the test on LOX IMVI, > 100 µM (inactive). Moreover, the GI50 in the test with MDA-MB-231, in the test with NCI-H23, in the test on NCI-H460, in the test with OVCAR-5, in the test with OVCAR-8 and in the test on SK-MEL-5 was > 100 µM (inactive) each time. The GI50 in the test on SNB-75, in the test on SR, with SW-620, in the test on T47D, in the test with TK-10 and with UO-31 was > 100 µM (inactive) throughout.
Regarding `O=C1c2ccccc2C(=O)c2nn(N=P(CP(=Nn3nc4c(n3)C(=O)c3ccccc3C4=O)(c3ccccc3)c3ccccc3)(c3ccccc3)c3ccccc3)nc21`, the GI50 in the test with A498 is > 100 µM (inactive); with A549, > 100 µM (inactive); in the test on HCT-15, more than 100 µM; in the test on Hs-578T it was > 100 µM (inactive); with K562, > 100 µM (inactive); with KM12, > 100 µM (inactive). Moreover, the GI50 with LOX IMVI, in the test on MDA-MB-231, in the test on NCI-H23, in the test with NCI-H460, with OVCAR-5 and in the test on OVCAR-8 was > 100 µM (inactive) each time. For the same compound, the GI50 with SK-MEL-5, with SR, in the test with SW-620, in the test on T47D and in the test with TK-10 was > 100 µM (inactive) each time.
Turning to `CC(=O)NC1c2ccccc2C(C)(C)C12CCC1(CC2)OCCO1` (centres undefined), the GI50 is > 100 µM (inactive) with A549; more than 100 µM in the test with HCT-15; > 100 µM (inactive) with Hs-578T; > 100 µM (inactive) with K562; > 100 µM (inactive) in the test with KM12; > 100 µM (inactive) in the test on LOX IMVI. Further, the GI50 with MDA-MB-231 is > 100 µM (inactive); in the test with NCI-H23 it was > 100 µM (inactive); in the test on NCI-H460, > 10 µM (inactive); with OVCAR-5, > 100 µM (inactive); in the test on OVCAR-8, > 100 µM (inactive); with SK-MEL-5, > 100 µM (inactive). The GI50 with SNB-75, in the test with SR, with SW-620, with T47D, with TK-10 and in the test on UO-31 was > 100 µM (inactive) in each case.

Source of the values: ChEMBL document CHEMBL1201862, “PubChem BioAssay data set” (2004).
